Where a name gives a salt, the structure may show the parent alone.
Experiments:
[1] = target: T1, 5HT uptake (serotonin reuptake), synaptosomes from hypothalamus of male rat brains (Rattus norvegicus, UniProt P31652); assay: Serotonin reuptake inhibition (5HT uptake inhibition) in rat brain synaptosomes; format: biochemical
T1 construct: synaptosomes are freshly isolated from areas of rat brain; from tissue; host or cells: synaptosomes (P2 fraction) from hypothalamus of male rat brains
Description: Biological Testing a) Studies of Serotonin Reuptake Inhibition (5HT Uptake Inhibition)
In order to be able to carry out these in vitro studies, synaptosomes are freshly isolated from areas of rat brain. A so-called “P2” fraction is used in each case, which is prepared according to the procedure of Gray and Whittaker (E. G. Gray and V. P. Whittaker (1962) J. Anat. 76, 79-88). For 5HT uptake, these vesicular particles are isolated from the hypothalamus of male rat brains. A detailed description of the method can be found in the literature (M. Ch. Frink, H.-H. Hennies, W. Englberger, M. Haurand and B. Wilffert (1996) Arzneim.-Forsch./Drug Res. 46 (III), 11, 1029-1036).

[2] = target: T2, NA uptake (noradrenaline reuptake), synaptosomes from hypothalamus of male rat brains (Rattus norvegicus, UniProt Q63380); assay: Noradrenaline reuptake inhibition (NA uptake inhibition) in rat brain synaptosomes; format: biochemical
T2 construct: synaptosomes are freshly isolated from areas of rat brain; from tissue; host or cells: synaptosomes (P2 fraction) from hypothalamus of male rat brains
T2 sequence (Q63380 1-617): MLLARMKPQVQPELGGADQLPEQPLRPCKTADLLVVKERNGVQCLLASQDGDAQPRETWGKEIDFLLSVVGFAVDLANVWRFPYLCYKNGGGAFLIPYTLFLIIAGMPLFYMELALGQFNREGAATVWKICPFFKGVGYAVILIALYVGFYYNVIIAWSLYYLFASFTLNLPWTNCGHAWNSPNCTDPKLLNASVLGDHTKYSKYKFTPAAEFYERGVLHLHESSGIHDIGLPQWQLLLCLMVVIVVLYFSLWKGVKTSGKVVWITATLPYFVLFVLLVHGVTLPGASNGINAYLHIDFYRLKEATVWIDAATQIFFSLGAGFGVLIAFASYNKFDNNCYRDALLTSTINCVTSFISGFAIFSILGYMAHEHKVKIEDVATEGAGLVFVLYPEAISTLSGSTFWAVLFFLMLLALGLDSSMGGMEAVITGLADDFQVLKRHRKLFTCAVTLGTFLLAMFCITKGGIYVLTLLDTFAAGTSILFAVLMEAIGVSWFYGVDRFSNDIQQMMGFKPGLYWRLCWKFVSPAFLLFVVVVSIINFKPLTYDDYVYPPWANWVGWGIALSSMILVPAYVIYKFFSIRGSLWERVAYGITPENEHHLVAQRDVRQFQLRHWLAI
Description: b) Studies of Noradrenaline Reuptake Inhibition (NA Uptake Inhibition)
In order to be able to carry out these in vitro studies, synaptosomes are freshly isolated from areas of rat brain. A so-called “P2” fraction is used in each case, which is prepared according to the procedure of Gray and Whittaker (E. G. Gray and V. P. Whittaker (1962) J. Anat. 76, 79-88). For NA uptake, these vesicular particles are isolated from the hypothalamus of male rat brains. A detailed description of the method can be found in the literature (M. Ch. Frink, H.-H. Hennies, W. Englberger, M. Haurand and B. Wilffert (1996) Arzneim.-Forsch./Drug Res. 46 (III), 11, 1029-1036).

T1 sequence (P31652 whole entry): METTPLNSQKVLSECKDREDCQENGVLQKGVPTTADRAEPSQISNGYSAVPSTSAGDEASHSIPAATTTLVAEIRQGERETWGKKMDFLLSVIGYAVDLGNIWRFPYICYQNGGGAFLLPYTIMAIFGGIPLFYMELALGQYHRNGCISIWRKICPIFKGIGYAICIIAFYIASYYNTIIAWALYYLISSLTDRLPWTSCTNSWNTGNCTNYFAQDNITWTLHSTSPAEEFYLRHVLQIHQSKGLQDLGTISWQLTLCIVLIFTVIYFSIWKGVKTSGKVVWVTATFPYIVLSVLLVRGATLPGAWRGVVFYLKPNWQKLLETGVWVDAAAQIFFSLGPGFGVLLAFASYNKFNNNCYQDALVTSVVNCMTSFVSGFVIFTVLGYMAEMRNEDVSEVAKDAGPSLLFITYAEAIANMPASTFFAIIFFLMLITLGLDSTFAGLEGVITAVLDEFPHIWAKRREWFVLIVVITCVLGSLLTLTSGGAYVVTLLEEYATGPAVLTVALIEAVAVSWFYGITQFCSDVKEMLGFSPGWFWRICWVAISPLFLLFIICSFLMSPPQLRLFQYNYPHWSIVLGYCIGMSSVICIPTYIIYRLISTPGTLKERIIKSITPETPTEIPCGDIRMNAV

| Structure (SMILES) | inhibition at 10 µM [1] | inhibition at 10 µM [2] |
| --- | --- | --- |
| CN(C)CC1CC2(CCC1(O)c1cccc(F)c1)NCCc1c2[nH]c2ccccc12 (centres unmarked) [Example 3, 1,1-(2-(Dimethylaminomethyl)-3-hydroxy-3-(3-fluorophenyl)-pentamethylene)-3,4-dihydro-1H-2,9-diazafluorene citrate] | 75% | 48% |
| Cc1ccccc1C1(O)CCC2(CC1CN(C)C)NCCc1c2[nH]c2ccccc12 (centres unmarked) [Example 6, 1,1-(2-(Dimethylaminomethyl)-3-hydroxy-3-(2-methylphenyl)-pentamethylene)-3,4-dihydro-1H-2,9-diazafluorene citrate] | 69% | – |
| CN(C)CC1CC2(CCC1(O)c1ccccc1)OCCc1c2sc2ccccc12 (centres unmarked) [Example 7, 1,1-(2-(Dimethylaminomethyl)-3-hydroxy-3-phenyl-pentamethylene)-1,3,4,9-tetrahydro-pyrano[3,4-b]benzothiophene citrate] | 88% | 59% |
| CN(C)CC1CC2(CCC1(O)c1ccccc1)SCCc1c2[nH]c2ccccc12 (centres unmarked) [Example 9, 1,1-(2-(Dimethylaminomethyl)-3-hydroxy-3-phenyl-pentamethylene)-1,3,4,9-tetrahydro-2-thia-9-aza-fluorene citrate] | 81% | – |
| CN(C)CC1CC2(CCC1(O)c1cccc(F)c1)OCCc1c2sc2ccccc12 (centres unmarked) [Example 10, 1,1-(2-(Dimethylaminomethyl)-3-hydroxy-3-(3-fluorophenyl)-pentamethylene)-1,3,4,9-tetrahydro-pyrano[3,4-b]benzothiophene citrate] | 88% | 55% |
| Cc1ccccc1C1(O)CCC2(CC1CN(C)C)OCCc1c2sc2ccccc12 (centres unmarked) [Example 11, 1,1-(2-(Dimethylaminomethyl)-3-hydroxy-3-(2-methylphenyl)-pentamethylene)-1,3,4,9-tetrahydro-pyrano[3,4-b]benzothiophene citrate] | 85% | 43% |
| CN(C)CC1CC2(CCC1(O)c1ccc(C(F)(F)F)cc1)OCCc1c2oc2ccccc12 (centres unmarked) [Example 13, 1,1-(2-(Dimethylaminomethyl)-3-hydroxy-3-(4-trifluoromethylphenyl)-pentamethylene)-1,3,4,9-tetrahydro-pyrano[3,4-b]benzofuran citrate] | 60% | 46% |
| CN(C)CC1CC2(CCC1(O)c1cccc(F)c1)SCCc1c2[nH]c2ccccc12 (centres unmarked) [Example 14, 1,1-(2-(Dimethylaminomethyl)-3-hydroxy-3-(3-fluorophenyl)-pentamethylene)-1,3,4,9-tetrahydro-2-thia-9-aza-fluorene citrate] | 61% | 46% |
| CN(C)CC1CC2(CCC1(O)c1ccc(C(F)(F)F)cc1)NCCc1c2[nH]c2ccccc12 (centres unmarked) [Example 15, 1,1-(2-(Dimethylaminomethyl)-3-hydroxy-3-(4-trifluoromethylphenyl)-pentamethylene)-3,4-dihydro-1H-2,9-diazafluorene dicitrate] | 83% | 76% |
| CN(C)CC1CC2(CCC1(O)c1cccc(F)c1)NCCc1c2[nH]c2cc(F)ccc12 (centres unmarked) [Example 16, 1,1-(2-(Dimethylaminomethyl)-3-hydroxy-3-(3-fluorophenyl)-pentamethylene)-7-fluoro-3,4-dihydro-1H-2,9-diazafluorene sesquicitrate] | 72% | – |
| COc1ccc2[nH]c3c(c2c1)CCNC31CCC(O)(c2ccccc2)C(CN(C)C)C1 (centres unmarked) [Example 17, 1,1-(2-(Dimethylaminomethyl)-3-hydroxy-3-phenyl-pentamethylene)-3,4-dihydro-6-methoxy-1H-2,9-diazafluorene citrate] | 57% | – |
| COc1ccc2[nH]c3c(c2c1)CCOC31CCC(O)(c2ccc(SC)cc2)C(CN(C)C)C1 (centres unmarked) [Example 18, 1,1-(2-(Dimethylaminomethyl)-3-hydroxy-3-(4-methylthiophenyl)-pentamethylene)-1,3,4,9-tetrahydro-6-methoxy-pyrano[3,4-b]indole citrate] | – | 41% |
| CSc1ccc(C2(O)CCC3(CC2CN(C)C)OCCc2c3[nH]c3ccccc23)cc1 (centres unmarked) [Example 20, 1,1-(2-(Dimethylaminomethyl)-3-hydroxy-3-(4-methylthiophenyl)-pentamethylene)-1,3,4,9-tetrahydro-pyrano[3,4-b]indole citrate] | 58% | – |
| COc1ccc2[nH]c3c(c2c1)CCNC31CCC(O)(c2cccc(F)c2)C(CN(C)C)C1 (centres unmarked) [Example 21, 1,1-(2-(Dimethylaminomethyl)-3-hydroxy-3-(3-fluorophenyl)-pentamethylene)-3,4-dihydro-6-methoxy-1H-2,9-diazafluorene citrate] | 57% | 44% |
| COc1ccc2[nH]c3c(c2c1)CCNC31CCC(O)(c2ccc(C(F)(F)F)cc2)C(CN(C)C)C1 (centres unmarked) [Example 22, 1,1-(2-(Dimethylaminomethyl)-3-hydroxy-3-(4-trifluoromethylphenyl)-pentamethylene)-3,4-dihydro-6-methoxy-1H-2,9-diazafluorene citrate] | 47% | – |
| CSc1ccc(C2(O)CCC3(CC2CN(C)C)SCCc2c3[nH]c3ccccc23)cc1 (centres unmarked) [Example 23, 1,1-(2-(Dimethylaminomethyl)-3-hydroxy-3-(4-methylthiophenyl)-pentamethylene)-1,3,4,9-tetrahydro-2-thia-9-aza-fluorene sesquicitrate] | 50% | – |
| Cc1ccccc1C1(O)CCC2(CC1CN(C)C)SCCc1c2[nH]c2ccccc12 (centres unmarked) [Example 24, 1,1-(2-(Dimethylaminomethyl)-3-hydroxy-3-(2-methylphenyl)-pentamethylene)-1,3,4,9-tetrahydro-2-thia-9-aza-fluorene citrate] | 75% | 42% |
| CSc1ccc(C2(O)CCC3(CC2CN(C)C)NCCc2c3[nH]c3ccccc23)cc1 (centres unmarked) [Example 26, 1,1-(2-(Dimethylaminomethyl)-3-hydroxy-3-(4-methylthiophenyl)-pentamethylene)-3,4-dihydro-1H-2,9-diazafluorene citrate] | – | 40% |
| CN(C)CC1CC2(CCC1(O)c1ccc(C(F)(F)F)cc1)OCCc1c2sc2ccccc12 (centres unmarked) [Example 29, 1,1-(2-(Dimethylaminomethyl)-3-hydroxy-3-(4-trifluoromethylphenyl)-pentamethylene)-1,3,4,9-tetrahydro-pyrano[3,4-b]benzothiophene citrate] | 47% | 35% |
| CSc1ccc(C2(O)CCC3(CC2CN(C)C)OCCc2c3oc3ccccc23)cc1 (centres unmarked) [Example 30, 1,1-(2-(dimethylaminomethyl)-3-hydroxy-3-(4-methylthiophenyl)-pentamethylene)-1,3,4,9-tetrahydro-pyrano[3,4-b]benzofuran citrate] | 83% | 37% |
| CSc1ccc(C2(O)CCC3(CC2CN(C)C)OCCc2c3sc3ccccc23)cc1 (centres unmarked) [Example 31, 1,1-(2-(dimethylaminomethyl)-3-hydroxy-3-(4-methylthiophenyl)-pentamethylene)-1,3,4,9-tetrahydro-pyrano[3,4-b]benzothiophene citrate] | 82% | 60% |
| Cc1ccccc1C1(O)CCC2(CC1CN(C)C)NCCc1c2[nH]c2cc(F)ccc12 (centres unmarked) [Example 32, 1,1-(2-(Dimethylaminomethyl)-3-hydroxy-3-(2-methylphenyl)-pentamethylene)-7-fluoro-3,4-dihydro-1H-2,9-diazafluorene citrate] | 75% | 38% |
| CN(C)CC1CC2(CCC1(O)c1ccc(C(F)(F)F)cc1)NCCc1c2[nH]c2cc(F)ccc12 (centres unmarked) [Example 33, 1,1-(2-(Dimethylaminomethyl)-3-hydroxy-3-(4-trifluoromethylphenyl)-pentamethylene)-7-fluoro-3,4-dihydro-1H-2,9-diazafluorene citrate] | 78% | 68% |
| CN(C)CC1CC2(CCC1(O)c1ccccc1)NCCc1c2[nH]c2cc(F)ccc12 (centres unmarked) [Example 35, 1,1-(2-(Dimethylaminomethyl)-3-hydroxy-3-phenyl-pentamethylene)-7-fluoro-3,4-dihydro-1H-2,9-diazafluorene dicitrate] | 67% | – |

— patent publication US7776848B2, “Spirocyclic cyclohexane compounds” (Gruenenthal GmbH, priority 2004, dated 2010)
